# Laboratory results taken from patent US11849727B2, “Synergistic formulations for control and repellency of biting arthropods” (Bedoukian Research, Inc., priority 2013, dated 2023).
# Tested on: Aedes aegypti
# Assay: Arm in Cage testing on human subjects (modified WHO - Nigel Hill protocol), dose response
# Format: in vivo
# Conditions: individual component, LDP Line dose response curve
# Method: A Modified WHO-[…] protocol was used for Dose Response curve generation. Three concurrent repetitions were conducted with 4 subjects (2 male, 2 female). Approximately 60 non blood-fed, female Aedes aegypti mosquitoes were placed in a 12''×12''×12'' (28316.85 cm^3) plexi and screen cage. […] Arms were inserted into the first cage for 30 seconds, with number of landings (with intent to bite) recorded at the end of the time interval. The same procedure was used for the 2nd and 3rd cage in succession. Control arm was inserted first, followed by the opposite arm treated with ethanol only (as a treatment control). The 'treatment arm' is then treated with dose 1 and inserted, then dose 2, dose 3, and so on. After complete protection was achieved, control arm was reinserted to verify continued activity. Percent repellency was calculated by utilizing the formula [{(C-T)/C}*100]. Where C=the number of mosquitoes landing with intent to bite on the ethanol only treated arm, and T=the number of mosquitoes landing with intent to bite on the 'repellent' treated arm. LDP Line® software (Bakr, E 2007) was used to determine ED50 (effective dose to repel 50%) and compare materials. […] Significance was determined by the use of 95% confidence intervals. […]
structure (smiles),measurement,value
"CCN(CC)C(=O)c1cccc(C)c1 [DEET, N,N-Diethyl-m-toluamide]",percent dose required to generate an ED25 (25% repellency),0.035%
